Data from US12686704B2, “Procoagulant peptides and use thereof” (RAMBAM MED-TECH LTD., priority 2021, dated 2026).

Columns and labels:
[1] = test system: rat; test: Rat models of uncontrolled hemorrhage (spleen transection, liver laceration); type: in vivo; settings: for bleeding (blood loss): 150 μg/kg subcutaneous half an hour before surgery, I.V. 2 minutes following trauma, or topical, FIGS. 2A-2F; for bleeding (blood loss) / bleeding time: vs PBS control; for bleeding time: FIG. 2G
Description: FIGS. 2A-2I include vertical bar graphs showing the effect of modified heparanase procoagulant peptides of the invention using different rat bleeding models. Two rat models of uncontrolled hemorrhage were applied. The models include spleen transection (2A) and liver laceration (2B). Blood loss was recorded every 2 minutes for the first 10 minutes after injury and at 5-minutes intervals thereafter for a total of 30 minutes. Shed blood were collected by placing reweighed gauze below the organ targeted for injury. The gauze was changed and weighed at the blood-loss intervals. Peptides 16 and 16AC were injected subcutaneously (150 μg/kg) half an hour before surgery (2A-2B) or intravenously (I.V.) in the saphenous vein (150 μg/kg) 2 minutes following the trauma (2C, 2D, 2H, and 2I). The third route of administration was topical application (150 μg/kg) on the incision site (2E-2F). The peptides were dissolved in phosphate-buffered saline (PBS) and added at a rate of a drop every 5 seconds. Control group (‘C’) was administered (either subcutaneously, intravenously, or topically) with the vehicle phosphate buffered saline (PBS). […] Mann-Whitney U test was used. Results represent mean±SD. *p<0.01, **p<0.001. In addition to Peptide 16 and Peptide 16AC, Peptide 16C, and Peptide 16A were also analyzed and compared in (2H and 2I).
Two rat models of uncontrolled hemorrhage were applied as previously described (Morgan et al., 2015; JAMA Surg.). The models included spleen transection (FIG. 2A) and liver laceration (FIG. 2B). Briefly, blood loss was recorded every 2 minutes for the first 10 minutes after injury and at 5-minute intervals thereafter for a total of 30 minutes. Shed blood were collected by placing reweighed gauze below the organ targeted for injury. The gauze was changed and weighed at the blood-loss intervals. Peptides 16 and 16AC were injected subcutaneous (150 μg/kg) half an hour before surgery (FIGS. 2A-2B) or intra-venous (I.V.) in the saphenous vein (150 μg/kg) 2 minutes following the trauma (FIGS. 2C-2D). The third route of administration was topical application (150 μg/kg) on the incision site (FIGS. 2E-2F). The peptides, dissolved in phosphate-buffered saline (PBS), were added at a rate of a drop every 5 seconds. Control (C) group was injected or topical applied with the vehicle phosphate buffered saline (PBS).

[2] = test system: HUVEC cells; test: Immunostaining of heparanase, TF, TFPI and TFPI-2 in HUVECs; type: cell-based, human; settings: 10 μg/ml; overnight incubation at 37° C.; vs control cells
Description: FIGS. 6A-6F include micrographs of immunohistochemistry assays showing that heparanase procoagulant peptides increase the level of heparanase in HUVECs. Ten (10) μg/ml of peptide 16 (6B-6C) or 10 μg/ml of peptide 16AC (6E-6F) was added to HUVEC cells and compared to control cells (6A-6D). After 30 min or overnight incubation at 37° C., the cells were fixed using formaldehyde 4%, permeabilized, blocked and reacted with specific heparanase antibody. […] Images were visualized through ×50 magnitude, with 0.82 MDC objective lens, captured with a Nikon E995 digital camera (Nikon, Tokyo, Japan), and processed with Adobe Photoshop software (Adobe Systems, San Jose, CA, USA).
FIGS. 7A-7F include micrographs of immunohistochemistry assays showing that heparanase procoagulant peptides increase the level of TF in HUVECs. Ten (10) μg/ml of peptide 16 (7B-7C) or 10 μg/ml of peptide 16AC (7E-7F) was added to HUVEC cells and compared to control cells (7A-7D). After 30 min or overnight incubation at 37° C., the cells were fixed using formaldehyde 4%, permeabilized, blocked and reacted with specific TF antibody. Images were visualized through ×50 magnitude, with 0.82 MDC objective lens, captured with a Nikon E995 digital camera (Nikon, Tokyo, Japan), and processed with Adobe Photoshop software (Adobe Systems, San Jose, CA, USA).
FIGS. 8A-8F include micrographs of immunohistochemistry assays showing that heparanase procoagulant peptides increase the level of TFPI in HUVECs. Ten (10) μg/ml of peptide 16 (8B-8C) or 10 μg/ml of peptide 16AC (8E-8F) was added to HUVEC cells and compared to control cells (8A-8D). After 30 min or overnight incubation at 37° C., the cells were fixed using formaldehyde 4%, permeabilized, blocked and reacted with specific TFPI-1 antibody. Images were visualized through ×50 magnitude, with 0.82 MDC objective lens, captured with a Nikon E995 digital camera (Nikon, Tokyo, Japan), and processed with Adobe Photoshop software (Adobe Systems, San Jose, CA, USA).
FIGS. 9A-9F include micrographs of immunohistochemistry assays showing that heparanase procoagulant peptides increase the level of TFPI-2 in HUVECs. Ten (10) μg/ml of peptide 16 (9B-9C) or 10 μg/ml of peptide 16AC (9E-9F) was added to HUVEC cells and compared to control cells (9A-9D). After 30 min or overnight incubation at 37° C., the cells were fixed using formaldehyde 4%, permeabilized, blocked and reacted with specific TFPI-2 antibody. Images were visualized through ×50 magnitude, with 0.82 MDC objective lens, captured with a Nikon E995 digital camera (Nikon, Tokyo, Japan), and processed with Adobe Photoshop software (Adobe Systems, San Jose, CA, USA).
Briefly, 10 μg/ml of peptide 16 or 10 μg/ml of peptide 16AC was added to HUVEC cells and compared to control cells (6A-6D). After 30 min or overnight incubation at 37° C., the cells were fixed using formaldehyde 4%, permeabilized, blocked and reacted with specific antibodies targeting heparanase, TF, TFPI-1, and TFPI-2 (FIGS. 6-9, respectively).

Substance | bleeding (blood loss) [1] | bleeding time ([1]; 150 μg/kg) | TF level (staining) [2] | TFPI level (staining) [2] | TFPI-2 level (staining) [2] | heparanase level (staining) [2] | effect in reducing the bleeding, comparison between peptides ([1]; 150 μg/kg, FIGS. 2A-2I (16C and 16A: I.V., FIGS. 2H-2I))
GSKRRKLRVYLHCT [Peptide 16, peptide comprising the procoagulant domain of heparanase, non-modified] | significant reduction | significant reduction | strong staining after overnight incubation | strong staining after overnight incubation | strong staining after overnight incubation | strong staining after overnight incubation | –
acetyl-GSKRRKLRVYLHCT-amid (Ac-GSKRRKLRVYLHCT-NH2) [Peptide 16AC, peptide 16 comprising a C-terminal amid group and an N-terminal acetyl group] | significant reduction | significant reduction | strong staining after overnight incubation | strong staining after overnight incubation | strong staining after overnight incubation | strong staining after overnight incubation | significantly better effect in reducing the bleeding compared to peptide 16
